Measurements: PubChem BioAssay AID1918933 (Molecular Pharmacology Branch, DTP, NCI, 2023)

System: 186277-243-T-J2-PDC complex spheroid viability
Assay: Anticancer human tumor 186277-243-T-J2-PDC patient-derived colon adenocarcinoma cell line growth inhibition
Conditions: for IC50: curve of first compound; for viability, T/C: stronger effect = lower value; active = viability on the fitted dose curve at most 10% of control; inactive = the rest
Method in brief: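 Multicellular complex spheroids of tumor cells with human endothelial cells (HUVEC) and mesenchymal stem cells; the LSD1 inhibitor iadademstat was combined with standard-of-care or investigational agents. Top concentration at or near clinical Cmax, half-log dilutions; final DMSO ≤0.25%.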

[1] = second compound 0.1 µM, first compound 0.000316 µM
[2] = second compound 0.1 µM, first compound 0.001 µM
[3] = second compound 0.1 µM, first compound 0.00316 µM
[4] = second compound 0.1 µM, first compound 0.01 µM
[5] = second compound 0.1 µM, first compound 0.0316 µM
[6] = second compound 0.1 µM, first compound 0.1 µM
[7] = second compound 0.316 µM, first compound 0.000316 µM
[8] = second compound 0.316 µM, first compound 0.001 µM
[9] = second compound 0.316 µM, first compound 0.00316 µM
[10] = second compound 0.316 µM, first compound 0.01 µM
[11] = second compound 0.316 µM, first compound 0.0316 µM
[12] = second compound 0.316 µM, first compound 0.1 µM
[13] = second compound 1 µM, first compound 0.000316 µM
[14] = second compound 1 µM, first compound 0.001 µM
[15] = second compound 1 µM, first compound 0.00316 µM
[16] = second compound 1 µM, first compound 0.01 µM
[17] = second compound 1 µM, first compound 0.0316 µM
[18] = second compound 1 µM, first compound 0.1 µM
[19] = second compound 3.16 µM, first compound 0.000316 µM
[20] = second compound 3.16 µM, first compound 0.001 µM
[21] = second compound 3.16 µM, first compound 0.00316 µM
[22] = second compound 3.16 µM, first compound 0.01 µM
[23] = second compound 3.16 µM, first compound 0.0316 µM
[24] = second compound 3.16 µM, first compound 0.1 µM
[25] = second compound 10 µM, first compound 0.000316 µM
[26] = second compound 10 µM, first compound 0.001 µM
[27] = second compound 10 µM, first compound 0.00316 µM
[28] = second compound 10 µM, first compound 0.01 µM
[29] = second compound 10 µM, first compound 0.0316 µM
[30] = second compound 10 µM, first compound 0.1 µM
[31] = second compound 0.1 µM, first compound 0.00949 µM
[32] = second compound 0.1 µM, first compound 0.03 µM
[33] = second compound 0.1 µM, first compound 0.0949 µM
[34] = second compound 0.1 µM, first compound 0.3 µM
[35] = second compound 0.1 µM, first compound 0.949 µM
[36] = second compound 0.1 µM, first compound 3 µM
[37] = second compound 0.316 µM, first compound 0.00949 µM
[38] = second compound 0.316 µM, first compound 0.03 µM
[39] = second compound 0.316 µM, first compound 0.0949 µM
[40] = second compound 0.316 µM, first compound 0.3 µM
[41] = second compound 0.316 µM, first compound 0.949 µM
[42] = second compound 0.316 µM, first compound 3 µM
[43] = second compound 1 µM, first compound 0.00949 µM
[44] = second compound 1 µM, first compound 0.03 µM
[45] = second compound 1 µM, first compound 0.0949 µM
[46] = second compound 1 µM, first compound 0.3 µM
[47] = second compound 1 µM, first compound 0.949 µM
[48] = second compound 1 µM, first compound 3 µM
[49] = second compound 3.16 µM, first compound 0.00949 µM
[50] = second compound 3.16 µM, first compound 0.03 µM
[51] = second compound 3.16 µM, first compound 0.0949 µM
[52] = second compound 3.16 µM, first compound 0.3 µM
[53] = second compound 3.16 µM, first compound 0.949 µM
[54] = second compound 3.16 µM, first compound 3 µM
[55] = second compound 10 µM, first compound 0.00949 µM
[56] = second compound 10 µM, first compound 0.03 µM
[57] = second compound 10 µM, first compound 0.0949 µM
[58] = second compound 10 µM, first compound 0.3 µM
[59] = second compound 10 µM, first compound 0.949 µM
[60] = second compound 10 µM, first compound 3 µM
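Also: 7 day exposure to compounds.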
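For viability, T/C in this document: 100% = DMSO vehicle control viability.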

CC(C)CC(NC(=O)CNC(=O)c1cc(Cl)ccc1Cl)B1OC(=O)CC(CC(=O)O)(C(=O)O)O1 (stereo not given) + NC1CCC(NC2CC2c2ccccc2)CC1
0.0195 µM: IC50 (second compound 10 µM)
inactive: viability, T/C [1] 102% | viability, T/C [2] 119% | viability, T/C [3] 115% | viability, T/C [4] 98.8% | viability, T/C [5] 20.6% | viability, T/C [7] 118% | viability, T/C [8] 114% | viability, T/C [9] 117% | viability, T/C [10] 96.6% | viability, T/C [11] 20.7% | viability, T/C [13] 113% | viability, T/C [14] 114% | viability, T/C [15] 111% | viability, T/C [16] 87.3% | viability, T/C [17] 18.3% | viability, T/C [19] 112% | viability, T/C [20] 107% | viability, T/C [21] 110% | viability, T/C [22] 96.5% | viability, T/C [23] 17.1% | viability, T/C [25] 105% | viability, T/C [26] 111% | viability, T/C [27] 111% | viability, T/C [28] 98.5% | viability, T/C [29] 15.1%
0.0186 µM: IC50 (second compound 1 µM)
0.0196 µM: IC50 (second compound 3.16 µM)
0.0203 µM: IC50 (second compound 0.316 µM)
0.0205 µM: IC50 (second compound 0.1 µM)
active: viability, T/C [6] 1.64% | viability, T/C [12] 1.44% | viability, T/C [18] 1.22% | viability, T/C [24] 1.04% | viability, T/C [30] 1.05%

COc1cc(Nc2ncc3c(n2)-c2ccc(Cl)cc2C(c2c(F)cccc2OC)=NC3)ccc1C(=O)O + NC1CCC(NC2CC2c2ccccc2)CC1
0.013 µM: IC50 (second compound 0.1 µM)
0.0137 µM: IC50 (second compound 10 µM)
active: viability, T/C [6] 0.36% | viability, T/C (second compound 0.1 µM, first compound 0.316 µM) 0.06% | viability, T/C (second compound 0.1 µM, first compound 1 µM) 0.02% | viability, T/C [12] 0.19% | viability, T/C (second compound 0.316 µM, first compound 0.316 µM) 0.05% | viability, T/C (second compound 0.316 µM, first compound 1 µM) 0.01% | viability, T/C [18] 0.14% | viability, T/C (second compound 1 µM, first compound 0.316 µM) 0.02% | viability, T/C (second compound 1 µM, first compound 1 µM) 0.01% | viability, T/C [24] 0.12% | viability, T/C (second compound 3.16 µM, first compound 0.316 µM) 0.04% | viability, T/C (second compound 3.16 µM, first compound 1 µM) 0.01% | viability, T/C [30] 0.81% | viability, T/C (second compound 10 µM, first compound 0.316 µM) 0.06% | viability, T/C (second compound 10 µM, first compound 1 µM) 0.02%
0.0104 µM: IC50 (second compound 1 µM)
inactive: viability, T/C [3] 131% | viability, T/C [4] 59.2% | viability, T/C [5] 19.2% | viability, T/C [9] 119% | viability, T/C [10] 54.1% | viability, T/C [11] 11.7% | viability, T/C [15] 109% | viability, T/C [16] 51.1% | viability, T/C [17] 11.3% | viability, T/C [21] 120% | viability, T/C [22] 51.8% | viability, T/C [23] 13.2% | viability, T/C [27] 128% | viability, T/C [28] 58.6% | viability, T/C [29] 27.7%
0.0112 µM: IC50 (second compound 0.316 µM)
0.0106 µM: IC50 (second compound 3.16 µM)

Cn1ncnc1C1c2n[nH]c(=O)c3cc(F)cc(c23)NC1c1ccc(F)cc1 (stereo not given) + NC1CCC(NC2CC2c2ccccc2)CC1
inactive: viability, T/C [1] 109% | viability, T/C [2] 105% | viability, T/C [3] 111% | viability, T/C [4] 107% | viability, T/C [5] 109% | viability, T/C [6] 104% | viability, T/C [7] 113% | viability, T/C [8] 107% | viability, T/C [9] 109% | viability, T/C [10] 108% | viability, T/C [11] 103% | viability, T/C [12] 96.8% | viability, T/C [13] 111% | viability, T/C [14] 107% | viability, T/C [15] 110% | viability, T/C [16] 107% | viability, T/C [17] 99.6% | viability, T/C [18] 97.8% | viability, T/C [19] 109% | viability, T/C [20] 99% | viability, T/C [21] 109% | viability, T/C [22] 103% | viability, T/C [23] 99.3% | viability, T/C [24] 104% | viability, T/C [25] 107% | viability, T/C [26] 113% | viability, T/C [27] 102% | viability, T/C [28] 104% | viability, T/C [29] 96% | viability, T/C [30] 108%
> 0.1 µM: IC50 (second compound 0.1 µM) | IC50 (second compound 0.316 µM) | IC50 (second compound 1 µM) | IC50 (second compound 3.16 µM) | IC50 (second compound 10 µM)

NS(=O)(=O)OCC1CC(n2ccc3c(NC4CCc5ccccc54)ncnc32)CC1O (stereo not given) + NC1CCC(NC2CC2c2ccccc2)CC1
0.518 µM: IC50 (second compound 1 µM)
0.907 µM: IC50 (second compound 10 µM)
0.474 µM: IC50 (second compound 0.316 µM)
active: viability, T/C [36] 9.95%
0.686 µM: IC50 (second compound 3.16 µM)
0.521 µM: IC50 (second compound 0.1 µM)
inactive: viability, T/C [31] 113% | viability, T/C [32] 96.2% | viability, T/C [33] 85.8% | viability, T/C [34] 65.8% | viability, T/C [35] 33.2% | viability, T/C [37] 126% | viability, T/C [38] 112% | viability, T/C [39] 97.3% | viability, T/C [40] 63% | viability, T/C [41] 29.6% | viability, T/C [42] 12.1% | viability, T/C [43] 121% | viability, T/C [44] 103% | viability, T/C [45] 103% | viability, T/C [46] 58.1% | viability, T/C [47] 38.1% | viability, T/C [48] 15.6% | viability, T/C [49] 113% | viability, T/C [50] 113% | viability, T/C [51] 97.3% | viability, T/C [52] 71.2% | viability, T/C [53] 42.5% | viability, T/C [54] 14% | viability, T/C [55] 112% | viability, T/C [56] 102% | viability, T/C [57] 92.8% | viability, T/C [58] 73% | viability, T/C [59] 49.8% | viability, T/C [60] 15.1%

O=C(C=Cc1cccc(S(=O)(=O)Nc2ccccc2)c1)NO + NC1CCC(NC2CC2c2ccccc2)CC1
active: viability, T/C [42] 2.43% | viability, T/C [48] 2.3% | viability, T/C [53] 16% | viability, T/C [54] 1.48% | viability, T/C [59] 15% | viability, T/C [60] 1.31%
0.285 µM: IC50 (second compound 10 µM)
0.29 µM: IC50 (second compound 0.316 µM)
0.289 µM: IC50 (second compound 0.1 µM)
0.294 µM: IC50 (second compound 1 µM)
0.305 µM: IC50 (second compound 3.16 µM)
inactive: viability, T/C [31] 109% | viability, T/C [32] 114% | viability, T/C [33] 121% | viability, T/C [34] 47.7% | viability, T/C [35] 20.5% | viability, T/C [36] 5.16% | viability, T/C [37] 116% | viability, T/C [38] 110% | viability, T/C [39] 109% | viability, T/C [40] 47% | viability, T/C [41] 15.7% | viability, T/C [43] 113% | viability, T/C [44] 105% | viability, T/C [45] 104% | viability, T/C [46] 47.1% | viability, T/C [47] 16.6% | viability, T/C [49] 99.7% | viability, T/C [50] 92% | viability, T/C [51] 113% | viability, T/C [52] 50.6% | viability, T/C [55] 104% | viability, T/C [56] 102% | viability, T/C [57] 113% | viability, T/C [58] 47.3%
